Results reported in PubChem BioAssay AID2060886 (Molecular Pharmacology Branch, DTP, NCI, 2025).

Tested on: 653999-131-R-J2-PDC complex spheroids, growth inhibition
Assay: Anticancer human tumor 653999-131-R-J2-PDC patient-derived lung adenocarcinoma cell line growth inhibition [RAS]
Details: for IC50: curve of first compound; for viability, T/C: stronger effect = lower value; active = viability on the fitted dose curve at most 10% of control; inactive = the rest
How it was run: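 Multi-cell-type spheroids: tumor cells plus HUVEC endothelial cells and mesenchymal stem cells. RAS-pathway inhibitors were combined with targeted agents, each dosed in half-log steps down from clinical Cmax, or from 10 microM when Cmax was unknown.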

[1] = second compound 0.000949 µM, first compound 0.0316 µM
[2] = second compound 0.000949 µM, first compound 0.1 µM
[3] = second compound 0.000949 µM, first compound 0.316 µM
[4] = second compound 0.000949 µM, first compound 1 µM
[5] = second compound 0.000949 µM, first compound 3.16 µM
[6] = second compound 0.000949 µM, first compound 10 µM
[7] = second compound 0.003 µM, first compound 0.0316 µM
[8] = second compound 0.003 µM, first compound 0.1 µM
[9] = second compound 0.003 µM, first compound 0.316 µM
[10] = second compound 0.003 µM, first compound 1 µM
[11] = second compound 0.003 µM, first compound 3.16 µM
[12] = second compound 0.003 µM, first compound 10 µM
[13] = second compound 0.00949 µM, first compound 0.0316 µM
[14] = second compound 0.00949 µM, first compound 0.1 µM
[15] = second compound 0.00949 µM, first compound 0.316 µM
[16] = second compound 0.00949 µM, first compound 1 µM
[17] = second compound 0.00949 µM, first compound 3.16 µM
[18] = second compound 0.00949 µM, first compound 10 µM
[19] = second compound 0.03 µM, first compound 0.0316 µM
[20] = second compound 0.03 µM, first compound 0.1 µM
[21] = second compound 0.03 µM, first compound 0.316 µM
[22] = second compound 0.03 µM, first compound 1 µM
[23] = second compound 0.03 µM, first compound 3.16 µM
[24] = second compound 0.03 µM, first compound 10 µM
[25] = second compound 0.0949 µM, first compound 0.0316 µM
[26] = second compound 0.0949 µM, first compound 0.1 µM
[27] = second compound 0.0949 µM, first compound 0.316 µM
[28] = second compound 0.0949 µM, first compound 1 µM
[29] = second compound 0.0949 µM, first compound 3.16 µM
[30] = second compound 0.0949 µM, first compound 10 µM
[31] = second compound 0.3 µM, first compound 0.0316 µM
[32] = second compound 0.3 µM, first compound 0.1 µM
[33] = second compound 0.3 µM, first compound 0.316 µM
[34] = second compound 0.3 µM, first compound 1 µM
[35] = second compound 0.3 µM, first compound 3.16 µM
[36] = second compound 0.3 µM, first compound 10 µM
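Note: spheroids exposed to the agents for seven days before the readout.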

CC1(O)CCCC1n1c(=O)c(C(F)F)cc2cnc(NC3CCN(S(C)(=O)=O)CC3)nc21 (centres undefined) + CCn1c(-c2cccnc2C(C)OC)c2c3cc(ccc31)N1CCOC(CC(NC(=O)C(C(C)C)N(C)C(=O)C3(F)CCN(C(=O)C#CC(C)(C)N(C)C)CC3)C(=O)N3CCCC(N3)C(=O)OCC(C)(C)C2)C1
6910 nM: IC50 (second compound 0.0949 µM)
6610 nM: IC50 (second compound 0.003 µM)
> 10000 nM: IC50 (second compound 0.000949 µM) | IC50 (second compound 0.03 µM)
inactive: viability, T/C [1] 88.3% | viability, T/C [2] 71.1% | viability, T/C [3] 67.8% | viability, T/C [4] 59.2% | viability, T/C [5] 81.2% | viability, T/C [6] 47.2% | viability, T/C [7] 86.8% | viability, T/C [8] 71.4% | viability, T/C [9] 73.4% | viability, T/C [10] 62.5% | viability, T/C [11] 71.7% | viability, T/C [12] 39.6% | viability, T/C [13] 97.2% | viability, T/C [14] 69.3% | viability, T/C [15] 78.6% | viability, T/C [16] 79.8% | viability, T/C [17] 79.5% | viability, T/C [18] 33.4% | viability, T/C [19] 92.6% | viability, T/C [20] 62.1% | viability, T/C [21] 60.9% | viability, T/C [22] 63.8% | viability, T/C [23] 83.3% | viability, T/C [24] 42.5% | viability, T/C [25] 86.8% | viability, T/C [26] 73.4% | viability, T/C [27] 64.4% | viability, T/C [28] 65.4% | viability, T/C [29] 85.9% | viability, T/C [30] 38.1% | viability, T/C [31] 84.3% | viability, T/C [32] 62.3% | viability, T/C [33] 72% | viability, T/C [34] 68.9% | viability, T/C [35] 88.9% | viability, T/C [36] 36.1%
6620 nM: IC50 (second compound 0.3 µM)
6600 nM: IC50 (second compound 0.00949 µM)

CCC(CC)c1cc(NC2CCC(N)C2)n2nccc2n1 (centres undefined) + CCn1c(-c2cccnc2C(C)OC)c2c3cc(ccc31)N1CCOC(CC(NC(=O)C(C(C)C)N(C)C(=O)C3(F)CCN(C(=O)C#CC(C)(C)N(C)C)CC3)C(=O)N3CCCC(N3)C(=O)OCC(C)(C)C2)C1
1980 nM: IC50 (second compound 0.003 µM)
1840 nM: IC50 (second compound 0.0949 µM)
inactive: viability, T/C [1] 101% | viability, T/C [2] 99.6% | viability, T/C [3] 102% | viability, T/C [4] 98.6% | viability, T/C [5] 15% | viability, T/C [6] 22.1% | viability, T/C [7] 111% | viability, T/C [8] 107% | viability, T/C [9] 106% | viability, T/C [10] 95.9% | viability, T/C [11] 17.7% | viability, T/C [12] 18.7% | viability, T/C [13] 102% | viability, T/C [14] 114% | viability, T/C [15] 106% | viability, T/C [16] 93% | viability, T/C [17] 14.4% | viability, T/C [18] 22.5% | viability, T/C [19] 96% | viability, T/C [20] 107% | viability, T/C [21] 114% | viability, T/C [22] 112% | viability, T/C [23] 17% | viability, T/C [24] 19.1% | viability, T/C [25] 97.5% | viability, T/C [26] 115% | viability, T/C [27] 121% | viability, T/C [28] 88.5% | viability, T/C [29] 12% | viability, T/C [30] 20% | viability, T/C [31] 92.1% | viability, T/C [32] 97.6% | viability, T/C [33] 108% | viability, T/C [34] 92.1% | viability, T/C [35] 13.7% | viability, T/C [36] 20.5%
2090 nM: IC50 (second compound 0.03 µM)
2010 nM: IC50 (second compound 0.000949 µM)
1910 nM: IC50 (second compound 0.3 µM)
1940 nM: IC50 (second compound 0.00949 µM)
